Laboratory results published in US11523610B2, “Regulating plant growth using a diapocarotenoid” (King Abdullah University of Science and Technology, priority 2018, dated 2022).
Entries after “also recorded” stand apart in the source; their conditions may differ.

Assays:
[1] = system: Arabidopsis collet transcriptome; assay: RNA-Seq of collet transcriptome; assay type: in vivo; conditions: collets
Procedure: For anchorene and NPA treatment, Col-0 seedlings were vertically grown on half MSO (with 0.5% sucrose+1% agar, 0.5 g/L MES, pH 5.7) plates supplemented with 20 μM anchorene or 1 μM NPA for 5 days. RAM excision treatment was applied by excising the RAM from 4.5-day old Col-0 seedlings, and then tissue was collected 12 hours after excision (5 DAG). About 2 mm of tissue at the collet site (see FIG. 11I) was collected at 5 DAG for all chemicals and physical treatment. Tissue from approximately 50 seedlings were used for each sample. Total RNA was extracted by Direct-zolTM RNA MiniPrep Plus (200 Preps) w/Zymo-Spin™ (ZYMO research). 100 ng total RNA were used for RNA Hi-seq 4000 (ILLUMINA). Each treatment includes three independent replicates.
Prior to the analysis of RNA-Seq data, the adaptor sequences and low-quality ends of sequenced reads were trimmed using Trimmomatic v0.32 and quality-checked using FastQC v0.11 (www.bioinformatics.babraham.ac.uk/projects/fastqc). To quantify the expression level of genes, the remaining reads were pseudo-aligned to the publicly available TAIR10 A. thaliana transcriptome (release 34) using kallisto v0.43.0. The estimated read counts and calculated transcripts per million (TPM) were subsequently passed to sleuth v0.28.1 for differential expression analysis. […] Gene ontology and KEGG pathway enrichment analyses were conducted using clusterProfiler and Pathview. RNA-Seq data can be accessed at NCBI via BioProject ID PRJNA489360.

[2] = system: dark grown Arabidopsis seedlings; assay: Adventitious root assay; assay type: in vivo; conditions: 5, 10, or 20 μM anchorene, 5 days
Description: (§1) ANRs were counted in seedlings vertically grown on half strength MS (with 0.5% sucrose +1% agar, 0.5 g/L MES, pH 5.7) media 8 days post-stratification (dps) using a dissection microscope. To investigate ANR formation after root apical meristems (RAM) excision (ANR-RE), RAM of seedlings were excised using sterile scalpels at 5 dps and then grown for another 3 days prior to counting the number of emerged ANRs. RAM of seedlings were excised at 8 dps and then grown for another 3 days prior to counting the number of emerged LRs. For determining the effect of anchorene on lateral roots, the number of emerged lateral roots were counted using a dissection microscope at 8 dps. For primary root length measurements, seedlings were measured using the publicly available ImageJ software (downloaded from rsbweb.nih.gov/ij/) after taking digital photographs. For adventitious root assay, the number of emerged adventitious roots per plant were counted after 5 days of treatment on plates with or without anchorene.
4-day-old dark grown Arabidopsis seedlings were transferred to plates with 5, 10, or 20 μM anchorene, or without. After 5 additional days of growth, the number of adventitious roots was determined for each seedling.

[3] = system: Arabidopsis seedlings (anchor roots after RAM excision); assay: ANR formation after root apical meristem excision (ANR-RE); assay type: in vivo
Description: as §1
ANR formation under carotenoid-deficient conditions was monitored to determine the role of endogenous carotenoids in ANR development. […] Therefore, ANR formation was monitored after RAM excision (ANR-RE) to stimulate ANR development. ANR measurements were used as an indicator of ANR formation capacity under different conditions. […] Norflurazon (NF) and 2-(4-chlorophenylthio)-triethylamine hydrochloride (CPTA), which block phytoene desaturation and lycopene cyclization, respectively were tested (FIG. 6A). The effect of D15, an inhibitor of CCDs was also investigated. Application of D15 to Arabidopsis seedlings is known to lead to an increase in carotenoid levels.

pDR5rev::GFP seedlings = assay: Confocal microscopy of pDR5rev::GFP auxin marker line; assay type: in vivo, Arabidopsis
Description: To examine pDR5Rev::GFP fluorescence at the collet region, live seedlings were directly used for laser scanning confocal microscopy (Zeiss LSM 510 microscope) examination.
For fluorescence intensity quantification of pDR5Rev::GFP and pPIN3::PIN3-GFP marker lines, ImageJ software (rsbweb.nih.gov/ij/) was used after taking confocal microscopy photos. All calculations are background subtracted.

rice (Nipponbare) = assay: Rice hydroponic growth with anchorene; assay type: in vivo; conditions: 20 μM anchorene, 6 days
Procedure: FIGS. 19A-E show anchorene promotes root growth in rice according to one or more embodiments of the present disclosure. […] Color photographs (B) and (C) show the comparison of the whole rice plant (B) and the root structure (C) under Mock and Anchorene treated conditions. (D) and (E) show quantification (cm) of the primary root length (D) and shoot length (E) under Mock and Anchorene treated conditions. 20 μM anchorene was used. The Nipponbare ecotype rice seeds were germinated for 4 days, and then transferred to Hoagland media hydroponic system with or without anchorene treatment for another 6 days. Anchorene was changed every 2 days for three times.
For rice, sterilized Nipponbare seeds were kept at 30° C. in darkness for 1 day to stimulate germination and transferred to Petri dishes with half strength Murashige and Skoog (MS) media (with 0.5 g/L MES, pH 5.7) and autoclaved filter paper. Dishes were incubated in darkness for 2 days then exposed to light for 1 day in PERCIVAL® growth chamber (12 h light/12 h dark, 26° C., 55% humidity, 500 umol.m^−2.s^−1). Uniform, healthy rice seedlings were transferred to hydroponic culture (Hoagland) supplied with acetone (Mock) or 20 μM anchorene. […] Crown roots number, as well as shoot and root length and fresh weight were recorded to perform the phenotyping.

pDR5::LUC seedlings = assay: Luciferase assay in pDR5::LUC auxin marker line; assay type: in vivo, Arabidopsis; conditions: 1 μM NF, 20 μM anchorene
Procedure: Luciferase activity was assayed as previously described. Briefly, 1 mL of 5 mM Potassium Luciferin (Gold Biotechnology®) dissolved in water was directly applied to pDR5:LUC seedlings grown vertically on treated half strength MS plates. The luciferin solution was allowed to dry for 5-10 minutes in the dark, at room temperature. Seedlings were then imaged using a Lumazone™ CA automated Chemiluminescence system. Seven minute exposure times were used.
A pDR5::LUC line, which marks LR prebranch sites, was used to track ANR development. […] ANR primordia initiation was observed as early as 3 dps, in anchorene treated pDR5::LUC and 158 pDR5rev::GFP seedling (FIGS. 5A-C).

[4] = system: Arabidopsis seedlings (lateral roots); assay: Lateral root emergence and lateral root capacity; assay type: in vivo
Description: as §1

## C\C(C=O)=C/C=C/C=C(\C)C=O [anchorene, 12,12′-diapocarotene-12,12′-dial]
[1]; 20 μM anchorene
  genes with opposite effects of RAM excision and anchorene treatment: 36 genes
  genes with similar response to RAM excision and anchorene treatment: 1459 genes
[1]; 20 μM anchorene, 1 μM NPA
  overlapping genes on which NPA and anchorene exert the opposite effect: 2791 (83%) genes
[1]; 20 μM anchorene, 1 μM NPA, 5 days
  overlapping genes whose expression level is affected by NPA and anchorene: 3355 genes
[1]; anchorene application
  effect on auxin biosynthesis genes: induction of many auxin biosynthesis genes
[2]
  number of adventitious roots: significantly increases
[3]; 20 μM anchorene simultaneous with 1 μM NF or 100 μM CPTA
  rescue of ANR-RE in carotenoid biosynthesis inhibitor treated seedlings: blocked inhibition of ANR-RE
[3]; 20 μM anchorene with 1 μM NPA
  rescue of ANR-RE in NPA treated seedlings: partially compensated
[3]; arf7arf19, 20 μM anchorene or after RAM excision
  ANR formation in arf7arf19 double mutant: did not form any ANR
[3]; psy mutant, 20 μM anchorene
  rescue of ANR-RE in psy mutant: restored wild-type ANR-RE
pDR5rev::GFP seedlings; 1 μM NF plus 20 μM anchorene
  GFP signal in ANR primordia, combined NF/anchorene treatment: clearly enhanced
pDR5rev::GFP seedlings; single compound, 20 μM anchorene, 1 μM NF
  GFP signal at the collet / ANR primordia: strong GFP signal
Rice (Nipponbare)
  rice primary root and crown root growth: clear effect
  rice shoot growth: not observed
pDR5::LUC seedlings
  LUC signal in the collet: intensified the LUC signal
[4]; 5 and 10 μM anchorene, 8 dps
  lateral root emergence: no effect; also recorded: did not affect
[4]; LR No. after RAM excision, 20 μM anchorene
  LR capacity in untreated seedlings: inhibits LR capacity
[4]; LR No. after RAM excision, 20 μM anchorene and 100 μl D15
  LR formation (LR capacity) after D15 treatment: no significant effect
[4]; anchorene application (FIGS. 3E-F)
  LR length: did not affect
